Tested on: normal human lung fibroblasts
Test: Ribosomal profiling: translational efficiency in TGFβ-treated fibroblasts
Assay type: cell-based
Conditions: TGFβ-treated fibroblasts
Method in brief: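 Cells lysed on ice after a cold PBS wash containing cycloheximide. Ribosome-protected fragments and total mRNA were prepared with the ARTseq kit and sequenced by RNA-Seq. Reads were trimmed, mapped to the human genome and counted uniquely over coding regions per gene, with low-count genes excluded before differential translational-efficiency analysis.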

SMILES: Cc1ccc(=O)n(-c2ccccc2)c1 [pirfenidone, 5-methyl-1-phenylpyridin-2-one]
- renormalizing the translational profile of RPL9 (ENSG00000163682): + (+ = 0.9 to 1.5)
- renormalizing the translational profile of RHOBTB3 (ENSG00000164292): − (− = <0.9)
- renormalizing the translational profile of HCN1 (ENSG00000164588): − (− = <0.9)
- renormalizing the translational profile of RPL27A (ENSG00000166441): + (+ = 0.9 to 1.5)
- renormalizing the translational profile of RP11-382A20.3.1 (ENSG00000166503): − (− = <0.9)
- renormalizing the translational profile of ANKDD1A (ENSG00000166839): + (+ = 0.9 to 1.5)
- renormalizing the translational profile of RPL13 (ENSG00000167526): − (− = <0.9)
- renormalizing the translational profile of EEF2 (ENSG00000167658): + (+ = 0.9 to 1.5)
- renormalizing the translational profile of CA5B (ENSG00000169239): ++ (++ = 1.5 to 2.0)
- renormalizing the translational profile of MURC (ENSG00000170681): − (− = <0.9)
- renormalizing the translational profile of HTRA3 (ENSG00000170801): − (− = <0.9)
- renormalizing the translational profile of PDE7B (ENSG00000171408): − (− = <0.9)
- renormalizing the translational profile of LPAR3 (ENSG00000171517): − (− = <0.9)
- renormalizing the translational profile of CTPS (ENSG00000171793): − (− = <0.9)
- renormalizing the translational profile of QARS (ENSG00000172053): − (− = <0.9)
- renormalizing the translational profile of RPL38 (ENSG00000172809): − (− = <0.9)
- renormalizing the translational profile of MRPL45 (ENSG00000174100): − (− = <0.9)
- renormalizing the translational profile of RPL4 (ENSG00000174444): + (+ = 0.9 to 1.5)
- renormalizing the translational profile of RPL15 (ENSG00000174748): − (− = <0.9)
- renormalizing the translational profile of DES (ENSG00000175084): − (− = <0.9)
- renormalizing the translational profile of EIF3F (ENSG00000175390): − (− = <0.9)
- renormalizing the translational profile of CLCF1 (ENSG00000175505): − (− = <0.9)
- renormalizing the translational profile of AMIGO3 (ENSG00000176020): + (+ = 0.9 to 1.5)
- renormalizing the translational profile of C14orf49 (ENSG00000176438): − (− = <0.9)
- renormalizing the translational profile of RPLP2 (ENSG00000177600): + (+ = 0.9 to 1.5)
- renormalizing the translational profile of IMPDH2 (ENSG00000178035): − (− = <0.9)
- renormalizing the translational profile of DNAJC22 (ENSG00000178401): + (+ = 0.9 to 1.5)
- renormalizing the translational profile of RPL35A (ENSG00000182899): + (+ = 0.9 to 1.5)
- renormalizing the translational profile of LENG9 (ENSG00000182909): − (− = <0.9)
- renormalizing the translational profile of C22orf32 (ENSG00000183172): − (− = <0.9)
- renormalizing the translational profile of NPW (ENSG00000183971): − (− = <0.9)
- renormalizing the translational profile of PDE4B (ENSG00000184588): + (+ = 0.9 to 1.5)
- renormalizing the translational profile of ROBO2 (ENSG00000185008): − (− = <0.9)
- renormalizing the translational profile of PTCH1 (ENSG00000185920): − (− = <0.9)
- renormalizing the translational profile of POLR1D (ENSG00000186184): − (− = <0.9)
- renormalizing the translational profile of DYNC2H1 (ENSG00000187240): − (− = <0.9)
- renormalizing the translational profile of RPL14 (ENSG00000188846): − (− = <0.9)
- renormalizing the translational profile of LRRK2 (ENSG00000188906): − (− = <0.9)
- renormalizing the translational profile of NACA (ENSG00000196531): + (+ = 0.9 to 1.5)
- renormalizing the translational profile of LAMB3 (ENSG00000196878): − (− = <0.9)
- renormalizing the translational profile of PCBP2 (ENSG00000197111): − (− = <0.9)
- renormalizing the translational profile of MAP3K5 (ENSG00000197442): − (− = <0.9)
- renormalizing the translational profile of RPL37A (ENSG00000197756): + (+ = 0.9 to 1.5)
- renormalizing the translational profile of RPL12 (ENSG00000197958): + (+ = 0.9 to 1.5)
- renormalizing the translational profile of LPAR1 (ENSG00000198121): − (− = <0.9)
- renormalizing the translational profile of RPL23A (ENSG00000198242): − (− = <0.9)
- renormalizing the translational profile of PLN (ENSG00000198523): − (− = <0.9)
- renormalizing the translational profile of RPL10A (ENSG00000198755): − (− = <0.9)
- renormalizing the translational profile of CES1 (ENSG00000198848): − (− = <0.9)
- renormalizing the translational profile of RPL39 (ENSG00000198918): − (− = <0.9)
- renormalizing the translational profile of CARD16 (ENSG00000204397): − (− = <0.9)
- renormalizing the translational profile of MICA (ENSG00000204520): − (− = <0.9)
- renormalizing the translational profile of GNB2L1 (ENSG00000204628): + (+ = 0.9 to 1.5)
- renormalizing the translational profile of RPL17 (ENSG00000215472): + (+ = 0.9 to 1.5)
- renormalizing the translational profile of RPL41 (ENSG00000229117): − (− = <0.9)
- renormalizing the translational profile of ARPC1A (ENSG00000241685): − (− = <0.9)
- renormalizing the translational profile of CHCHD10 (ENSG00000250479): +++ (+++ = >2.0)
- renormalizing the translational profile of EEF1G (ENSG00000254772): − (− = <0.9)
- number of genes whose translational efficiency was uniquely modulated by the compound (duplicate ribosomal profiles): 35 genes
- effect in renormalizing the translational profile of the gene (gene RPS2 (ENSG00000140988)): − (− = <0.9)
- effect in renormalizing the translational profile of the gene (gene RPS3 (ENSG00000149273)): − (− = <0.9)
- effect in renormalizing the translational profile of the gene (gene RPS3A (ENSG00000145425)): − (− = <0.9)
- effect in renormalizing the translational profile of the gene (gene RPS4X (ENSG00000198034)): − (− = <0.9)
- effect in renormalizing the translational profile of the gene (gene RPS4Y1 (ENSG00000129824)): − (− = <0.9)
- effect in renormalizing the translational profile of the gene (gene RPS5 (ENSG00000083845)): + (+ = 0.9 to 1.5)
- effect in renormalizing the translational profile of the gene (gene RPS6 (ENSG00000137154)): − (− = <0.9)
